Biological target: T1, recombinant human NK3 receptor (Homo sapiens, UniProt P29371)
T1 construct: expressed in transfected cells; host or cells: HEK293 cells (transient expression), membranes
T1 sequence (P29371 1-465): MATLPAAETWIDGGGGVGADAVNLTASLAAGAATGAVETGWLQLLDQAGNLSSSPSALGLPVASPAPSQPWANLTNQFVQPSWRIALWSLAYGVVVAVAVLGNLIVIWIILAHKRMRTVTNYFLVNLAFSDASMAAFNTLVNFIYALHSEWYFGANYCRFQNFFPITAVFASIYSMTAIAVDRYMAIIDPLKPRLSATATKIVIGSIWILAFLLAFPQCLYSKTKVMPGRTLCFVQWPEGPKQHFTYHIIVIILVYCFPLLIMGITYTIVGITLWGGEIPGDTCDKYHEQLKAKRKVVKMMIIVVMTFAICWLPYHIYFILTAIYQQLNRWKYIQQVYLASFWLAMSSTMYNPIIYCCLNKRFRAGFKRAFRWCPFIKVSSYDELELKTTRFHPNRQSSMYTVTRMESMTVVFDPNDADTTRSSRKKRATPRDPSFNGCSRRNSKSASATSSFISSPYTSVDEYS
Experiment: [3H]SR142801 competition binding assay
Conditions: membranes from HEK293 cells transiently expressing recombinant human NK3 receptor; [3H]SR142801 radioligand; 75 min at RT; Ki by Cheng-Prussoff; read-out: Data Ki (hNK-3 receptor affinity)
How it was run: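 Membranes from HEK293 cells transiently expressing the receptor, 5 μg protein/well, in 50 mM Tris-HCl pH 7.4 with 4 mM MnCl2, 1 μM phosphoramidon, 0.1% BSA; nonspecific binding defined with 10 μM SB222200. Filtration and scintillation counting; IC50 from Hill fit, Ki by Cheng-Prussoff using saturation-derived KD, duplicates.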

| Ki [µM] | SMILES |
| --- | --- |
| 0.036 | Cc1nc(-c2ccc(C(=O)N3CCC(C(=O)N[C@@H](C)c4ccc(F)cc4)(c4ccc(F)cc4)CC3)cc2)no1 [Example 168, 4-(4-Fluoro-phenyl)-1-[4-(5-methyl-[1,2,4]oxadiazol-3-yl)-benzoyl]-piperidine-4-carboxylic acid [(S)-1-(4-fluoro-phenyl)-ethyl]-amide] |
| 0.0076 | C[C@H](NC(=O)C1(c2ccc(F)cc2)CCN(C(=O)c2ccc(N3CCS(=O)(=O)CC3)cc2)CC1)C1CCCCC1 [Example 91, 1-[4-(1,1-Dioxo-1λ6 thiomor-pholin-4-yl)-benzoyl]-4-(4-fluoro-phenyl)-piperidine-4-carboxylic acid ((S)-1-cyclohexyl-ethyl)-amide] |
| 0.0051 | C[C@H](NC(=O)C1(c2ccc(F)cc2)CCN(C(=O)c2ccc(-c3ccc(F)cc3)cc2)CC1)C1CCCCC1 [Example 92, 1-(4′-Fluoro-biphenyl-4-carbonyl)-4-(4-fluoro-phenyl)-piperidine-4-carboxylic acid ((S)-1-cyclohexyl-ethyl)-amide] |
| 0.0687 | C[C@H](NC(=O)C1(c2ccccc2)CCN(C(=O)c2ccc(-c3nnco3)cc2)CC1)c1ccccc1 [Example 35, 1-(4-[l,3,4]Oxadiazol-2-yl-benzoyl)-4-phenyl-piperidine-4-carboxylic acid ((S)-1-phenyl-ethyl)-amide] |
| 0.0221 | C[C@H](NC(=O)C1(c2ccccc2)CCN(C(=O)N2CCN(C3CCCCC3)CC2)CC1)c1ccccc1 [Example 230, 1-(4-Cyclohexyl-piperazine-1-carbonyl)-4-phenyl-piperidine-4-carboxylic acid ((S)-1-phenyl-ethyl)-amide] |
| 0.0937 | Cc1noc(-c2ccc(C(=O)N3CCC(C(=O)N[C@@H](C)c4ccc(F)cc4)(c4ccc(F)cn4)CC3)cc2)n1 [Example 126, 5-Fluoro-1′-[4-(3-methyl-[1,2,4]oxadiazol-5-yl)-benzoyl]-2′,3′,5′,6′-tetrahydro-1′H-[2,4′]bipyridinyl-4′-carboxylic acid [(S)-1-(4-fluoro-phenyl)-ethyl]-amide] |
| 0.0294 | C[C@H](NC(=O)C1(c2ccccc2)CCN(C(=O)N2CCN(c3ccc(S(C)(=O)=O)cc3F)CC2)CC1)c1ccccc1 [Example 211, 1-[4-(2-Fluoro-4-methanesulfonyl-phenyl)-piperazine-1-carbonyl]-4-phenyl-piperidine-4-carboxylic acid ((S)-1-phenyl-ethyl)-amide] |
| 0.006 | Cc1noc(-c2ccc(C(=O)N3CCC(C(=O)N[C@@H](C)c4ccccc4)(c4ccc(F)cc4)CC3)cc2)n1 [Example 81, 4-(4-Fluoro-phenyl)-1-[4-(3-methyl-[1,2,4]oxa-diazol-5-yl)-benzoyl]-piperidine-4-carboxylic acid ((S)-1-phenyl-ethyl)-amide] |
| 0.0072 | C[C@H](NC(=O)C1(c2ccccc2)CCN(C(=O)c2ccc(-c3ccc(F)cc3)cc2)CC1)c1ccccc1 [Example 54, 1-(4′-Fluoro-biphenyl-4-carbonyl)-4-phenyl-piperidine-4-carboxylic acid ((S)-1-phenyl-ethyl)-amide] |
| 0.0041 | C[C@H](NC(=O)C1(c2ccccc2)CCN(C(=O)c2ccc(N3CCS(=O)(=O)CC3)cc2)CC1)C1CCCCC1 [Example 80, 1-[4-(1,1 - Dioxo-1λ6-thiomorpholin-4-yl)-benzoyl]-4-phenyl-piperidine-4-carboxylic acid ((S)-1-cyclohexyl-ethyl)-amide] |
| 0.0074 | O=C(c1ccc(-c2ccc(F)cc2)cc1)N1CCC(C(=O)N[C@H](c2cccc(F)c2)C2CC2)(c2ccc(F)cc2)CC1 [Example 193, 1-(4′-Fluoro-biphenyl-4-carbonyl)-4-(4-fluoro-phenyl)-piperidine-4-carboxylci acid [(S)-cyclopropyl-(3-fluoro-phenyl)-methyl]-amide] |
| 0.044 | C[C@H](NC(=O)C1(c2ccccc2)CCN(C(=O)c2ccc(N3CCCCC3)cc2)CC1)c1ccccc1 [Example 11, 4-Phenyl-1-(4-piperidin-1-yl-benzoyl)-piperidine-4-carboxylic acid ((S)-1-phenyl-ethyl)-amide] |
| 0.0087 | C[C@H](NC(=O)C1(c2ccccc2)CCN(C(=O)N2CCN(c3ccc(F)cc3)CC2)CC1)c1ccc(F)cc1 [Example 203, 1-[4-(4-Fluoro-phenyl)-piperazine-1-carbonyl]-4-phenyl-piperidine-4-carboxylic acid [(S)-1-(4-fluoro-phenyl)-ethyl]-amide] |
| 0.0363 | CC(=O)c1ccc(N2CCN(C(=O)N3CCC(C(=O)N[C@@H](C)c4ccccc4)(c4ccccc4)CC3)CC2)cc1 [Example 207, 1-[4-(4-Acetyl-phenyl)-piperazine-1-carbonyl]-4-phenyl-piperidine-4-carboxylic acid ((S)-1-phenyl-ethyl)-amide] |
| 0.0563 | CN(Cc1ccc(F)cc1)C(=O)C1(c2ccccc2)CCN(C(=O)c2ccc(N3CCS(=O)(=O)CC3)cc2)CC1 [Example 106, 1-[4-(1,1-Dioxo-1λ6-thiomor-pholin-4-yl)-benzoyl]-4-phenyl-piperidine-4-carboxylic acid (4-fluoro-benzyl)-methyl-amide] |
| 0.0638 | C[C@H](NC(=O)C1(c2ccccc2)CCN(C(=O)N2CCN(c3cccnc3)CC2)CC1)c1ccccc1 [Example 224, 4-Phenyl-1-(4-pyridin-3-yl-piperazine-1-carbonyl)-piperidine-4-carboxylic acid ((S)-1-phenyl-ethyl)-amide] |
| 0.0382 | O=C(c1ccc(-c2ccc(F)cc2)cc1)N1CCC(C(=O)NCC2CCCCC2)(c2ccc(F)cc2)CC1 [Example 142, 1-(4′-Fluoro-biphenyl-4-carbonyl)-4-(4-fluoro-phenyl)-piperidine-4-carboxylic acid cyclohexylmethyl-amide] |
| 0.0229 | C[C@H](NC(=O)C1(c2ccccc2)CCN(C(=O)c2ccc(-c3ccccc3)cc2)CC1)c1ccccc1 [Example 2, 1-(Biphenyl-4-carbonyl)-4-phenyl-piperidine-4-carboxylic acid ((S)-1-phenyl-ethyl)-amide] |
| 0.0206 | C[C@H](NC(=O)C1(c2ccccc2)CCN(C(=O)c2ccc(-c3ccccc3)nc2)CC1)c1ccccc1 [Example 56] |
| 0.01 | C[C@H](NC(=O)C1(c2ccccc2)CCN(C(=O)N2CCC(N3CCSCC3)CC2)CC1)c1ccc(F)cc1 [Example 222, 4-Phenyl-1-(4-thiomorpholin-4-yl-piperidine-1-carbonyl)-piperidine-4-carboxylic acid [(S)-1-(4-fluoro-phenyl)-ethyl]-amide] |
| 0.0636 | CC(C)N(NC(=O)C1(c2ccc(F)cc2)CCN(C(=O)c2ccc(-c3ccc(F)cc3)cc2)CC1)c1ccc(F)cc1 [Example 185, 1-(4′-Fluoro-biphenyl-4-carbonyl)-4-(4-fluoro-phenyl)-piperidine-4-carboxylic acid N′-(4-fluoro-phenyl)-N′-ispropyl-hydrazide] |
| 0.054 | CC(C)C(NC(=O)C1(c2ccc(F)cc2)CCN(C(=O)c2ccc(N3CCCCC3=O)cc2)CC1)c1ccc(F)cc1 (stereo not shown) [Example 171, 4-(4-Fluoro-phenyl)-1-[4-(2-oxo-piperidin-1-yl)-benzoyl]-piperidine-4-carboxylic acid [1-(4-fluoro-phenyl)-2-methyl-propyl]-amide] |
| 0.0241 | C[C@H](NC(=O)C1(c2ccccc2)CCN(C(=O)c2cnc(-c3ccccc3)nc2)CC1)c1ccccc1 [Example 52, 4-Phenyl-1-(2-phenyl-pyrimidine-5-carbonyl)-piperidine-4-carboxylic acid ((S)-1-phenyl-ethyl)-amide] |
| 0.041 | Cc1nc(-c2ccc(C(=O)N3CCC(C(=O)NC4(c5ccc(F)cc5)CC4)(c4ccc(F)cc4)CC3)cc2)no1 [Example 163, 4-(4-Fluoro-phenyl)-1-[4-(5-methyl-[1,2,4]oxadiazol-3-yl)-benzoyl]-piperidine-4-carboxylic acid [1-(4-fluoro-phenyl)-cyclopropyl]-amide] |
| 0.018 | C[C@H](NC(=O)C1(c2ccc(F)cc2)CCN(C(=O)N2CCN(c3ccc(F)cc3)CC2)CC1)c1ccc(F)cc1 [Example 179, 4-(4-Fluoro-phenyl)-1-[4-(fluoro-phenyl)-piperazine-1-carbonyl]-piperidine-4-carboxylic acid [(S)-1-(4-fluoro-phenyl)-ethyl]-amide] |
| 0.0088 | C[C@H](NC(=O)C1(c2ccccc2)CCN(C(=O)N2CCN(c3ccc(F)cc3)CC2)CC1)c1ccccc1 [Example 213, 1-[4-(4-Fluoro-phenyl)-piperazine-1-carbonyl]-4-phenyl-piperidine-4-carboxylic acid ((S)-1-phenyl-ethyl)-amide] |
| 0.0174 | C[C@H](NC(=O)C1(c2ccccc2)CCN(C(=O)c2ccc(N3CCS(=O)(=O)CC3)cc2)CC1)c1ccc(Cl)cc1 [Example 101, 1-[4-(1,1-Dioxo-1λ6-thiomor-pholin-4-yl)-benzoyl]-4-phenyl-pipendine-4-carboxylic acid [(S)-1-(4-chloro-phenyl)-ethyl]-amide] |
| 0.015 | Cc1noc(-c2ccc(C(=O)N3CCC(C(=O)NC(c4ccc(F)cc4)C(F)(F)F)(c4ccc(F)cc4)CC3)cc2)n1 (stereo not shown) [Example 200, 4-(4-Fluoro-phenyl)-1-[4-(3-methyl-[1,2,4]oxadiazol-5-yl)-benzoyl]-piperidine-4-carboxylic acid [2,2,2-trifluoro-1-(4-fluoro-phenyl)-ethyl]-amide] |

Reference: patent publication US8324250B2 (Hoffmann-La Roche Inc., priority 2009, dated 2012)
